In PMC11131246, “Molecular determinants for brain targeting by peptides: a meta-analysis approach with experimental validation” (Fluids and Barriers of the CNS, 2024):
Residues, ends and D or L forms follow the SMILES beside them. *: point of attachment. NODAGA = O=C(O)CN1CCN(CC(=O)O)CCN(C(CCC(=O)*)C(=O)O)CC1; CF = 5(6)-carboxyfluorescein

What was measured:
[1] = Biodistribution of 67Ga-radiolabeled peptides; parameters: species or system mouse; settings: female, CD1, mouse, in vivo, iv, 100 uCi, total radioactivity, Tissue distribution
Method: All animal experiments were performed in compliance with national and EU legislation for good practices on laboratory animal science. The animals were housed in a temperature and humidity-controlled environment with a 12 h light/12 h dark schedule. Biodistribution of radiolabeled peptides was performed on 7 weeks old CD1 female mice.
Animals were intravenously injected into the tail vein with 100 µL of a 25 µM saline solution of the ^67Ga-peptide with a radioactivity around 100 µCi. The mice were euthanized by cervical dislocation at 2 min and 1 h after injection. The dose administered and the radioactivity in the euthanized animals was measured using a dose calibrator (Carpintec CRC-15W, Ramsey, USA). The difference between the radioactivity in the injected and the euthanized animals was assumed to be due to excretion. Brain and tissues of interest without previous perfusion were dissected, washed, and weighed, and their radioactivity was measured using a γ counter (Hidex AMG, Hidex, Turku, Finland). The uptake in the brain and tissues of interest was calculated and expressed as a percentage of injected radioactivity dose per gram of tissue (% ID/g).

[2] = Analytical RP-HPLC retention time (used as indication of hydrophobicity); format: physicochemical; settings: analytical reverse phase HPLC, UV chromatogram; free and CF-labelled peptides

CC[C@H](C)[C@H](NC(=O)[C@H](C)NC(=O)CNC(=O)[C@H](CCCCN)NC(=O)[C@H](Cc1ccc(O)cc1)NC(=O)[C@H](CCCCN)NC(=O)CCC(C(=O)O)N1CCN(CC(=O)O)CCN(CC(=O)O)CC1)C(=O)N[C@H](C(=O)NCC(=O)N[C@@H](CC(N)=O)C(=O)N[C@H](C(=O)N[C@@H](CCCCN)C(N)=O)[C@@H](C)CC)[C@@H](C)CC (some centres unmarked) [67Ga-BBBpS_1, metal not drawn] ({NODAGA}-KYKGAIIGNIK-NH2)
tissue uptake at 2 min ([1]; Blood): 12.6 ± 2.1 %ID/g | tissue uptake at 1 h ([1]; Blood): 0.5 ± 0.3 %ID/g | tissue uptake at 2 min ([1]; Bone): 3.4 ± 0.3 %ID/g | tissue uptake at 1 h ([1]; Bone): 0.3 ± 0.1 %ID/g | tissue uptake at 2 min ([1]; Brain (brain uptake)): 0.66 ± 0.16 %ID/g | tissue uptake at 1 h ([1]; Brain (brain uptake)): 0.04 ± 0.02 %ID/g | tissue uptake at 2 min ([1]; Heart): 3.4 ± 1 %ID/g | tissue uptake at 1 h ([1]; Heart): 0.3 ± 0.1 %ID/g | tissue uptake at 2 min ([1]; Intestine): 1.7 ± 0.3 %ID/g | tissue uptake at 1 h ([1]; Intestine): 0.2 ± 0.1 %ID/g | tissue uptake at 2 min ([1]; Kidney): 33.8 ± 3.8 %ID/g | tissue uptake at 1 h ([1]; Kidney): 2.4 ± 1.8 %ID/g | tissue uptake at 2 min ([1]; Liver): 4.1 ± 0.8 %ID/g | tissue uptake at 1 h ([1]; Liver): 0.3 ± 0.2 %ID/g | tissue uptake at 2 min ([1]; Lung): 6.1 ± 0.7 %ID/g | tissue uptake at 1 h ([1]; Lung): 2.5 ± 0.3 %ID/g | tissue uptake at 2 min ([1]; Muscle): 2.4 ± 0.2 %ID/g | tissue uptake at 1 h ([1]; Muscle): 0.3 ± 0.1 %ID/g | tissue uptake at 2 min ([1]; Spleen): 2 ± 0.2 %ID/g | tissue uptake at 1 h ([1]; Spleen): 0.2 ± 0.1 %ID/g | tissue uptake at 2 min ([1]; Stomach): 1.4 ± 0.5 %ID/g | tissue uptake at 1 h ([1]; Stomach): 0.1 %ID/g

CC[C@H](C)[C@H](NC(=O)[C@H](C)NC(=O)CNC(=O)[C@H](CO)NC(=O)[C@H](CCCNC(=N)N)NC(=O)[C@H](Cc1ccc(O)cc1)NC(=O)[C@H](CCCCN)NC(=O)CCC(C(=O)O)N1CCN(CC(=O)O)CCN(CC(=O)O)CC1)C(=O)N[C@H](C(=O)N[C@H](C(=O)NCC(=O)N[C@@H](Cc1ccc(O)cc1)C(N)=O)[C@@H](C)CC)[C@@H](C)O (some centres unmarked) [67Ga-BBBpS_2, metal not drawn] ({NODAGA}-KYRSGAITIGY-NH2)
tissue uptake at 2 min ([1]; Blood): 13.4 ± 3.8 %ID/g | tissue uptake at 1 h ([1]; Blood): 1.4 ± 0.9 %ID/g | tissue uptake at 2 min ([1]; Bone): 3.1 ± 0.1 %ID/g | tissue uptake at 1 h ([1]; Bone): 0.8 ± 0.5 %ID/g | tissue uptake at 2 min ([1]; Brain (brain uptake)): 0.52 ± 0.23 %ID/g | tissue uptake at 1 h ([1]; Brain (brain uptake)): 0.09 ± 0.03 %ID/g | tissue uptake at 2 min ([1]; Heart): 3.1 ± 0.7 %ID/g | tissue uptake at 1 h ([1]; Heart): 0.8 ± 0.1 %ID/g | tissue uptake at 2 min ([1]; Intestine): 1.5 ± 0.2 %ID/g | tissue uptake at 1 h ([1]; Intestine): 0.4 %ID/g | tissue uptake at 2 min ([1]; Kidney): 18.1 ± 2.1 %ID/g | tissue uptake at 1 h ([1]; Kidney): 1.4 ± 0.6 %ID/g | tissue uptake at 2 min ([1]; Liver): 3.5 ± 1.2 %ID/g | tissue uptake at 1 h ([1]; Liver): 0.6 ± 0.2 %ID/g | tissue uptake at 2 min ([1]; Lung): 6 ± 1.2 %ID/g | tissue uptake at 1 h ([1]; Lung): 1.7 ± 0.4 %ID/g | tissue uptake at 2 min ([1]; Muscle): 2 ± 0.4 %ID/g | tissue uptake at 1 h ([1]; Muscle): 0.7 ± 0.1 %ID/g | tissue uptake at 2 min ([1]; Spleen): 1.9 ± 0.6 %ID/g | tissue uptake at 1 h ([1]; Spleen): 0.5 ± 0.2 %ID/g | tissue uptake at 2 min ([1]; Stomach): 1 ± 0.1 %ID/g | tissue uptake at 1 h ([1]; Stomach): 0.2 ± 0.1 %ID/g

CC[C@H](C)[C@H](NC(=O)[C@H](Cc1c[nH]cn1)NC(=O)CCC(C(=O)O)N1CCN(CC(=O)O)CCN(CC(=O)O)CC1)C(=O)N[C@@H](CCC(N)=O)C(=O)N[C@@H](CC(C)C)C(=O)N[C@@H](CO)C(=O)N1CCC[C@H]1C(=O)N[C@@H](Cc1ccccc1)C(=O)N[C@@H](CO)C(=O)N[C@@H](CCC(N)=O)C(=O)N[C@@H](CO)C(=O)N[C@@H](Cc1c[nH]c2ccccc12)C(=O)N[C@@H](CCCNC(=N)N)C(N)=O (some centres unmarked) [67Ga-BBBpS_5, metal not drawn] ({NODAGA}-HIQLSPFSQSWR-NH2)
tissue uptake at 2 min ([1]; Blood): 10.7 ± 2.1 %ID/g | tissue uptake at 1 h ([1]; Blood): 1.2 ± 0.3 %ID/g | tissue uptake at 2 min ([1]; Bone): 3.8 ± 0.5 %ID/g | tissue uptake at 1 h ([1]; Bone): 0.6 ± 0.4 %ID/g | tissue uptake at 2 min ([1]; Brain (brain uptake)): 0.74 ± 0.01 %ID/g | tissue uptake at 1 h ([1]; Brain (brain uptake)): 0.05 ± 0.01 %ID/g | tissue uptake at 2 min ([1]; Heart): 3.8 ± 0.8 %ID/g | tissue uptake at 1 h ([1]; Heart): 0.5 %ID/g | tissue uptake at 2 min ([1]; Intestine): 2.2 ± 0.2 %ID/g | tissue uptake at 1 h ([1]; Intestine): 0.4 ± 0.2 %ID/g | tissue uptake at 2 min ([1]; Kidney): 22 ± 3.6 %ID/g | tissue uptake at 1 h ([1]; Kidney): 1.1 ± 0.6 %ID/g | tissue uptake at 2 min ([1]; Liver): 5.2 ± 1.1 %ID/g | tissue uptake at 1 h ([1]; Liver): 1 ± 0.4 %ID/g | tissue uptake at 2 min ([1]; Lung): 7.8 ± 2.8 %ID/g | tissue uptake at 1 h ([1]; Lung): 1.2 ± 0.2 %ID/g | tissue uptake at 2 min ([1]; Muscle): 3.1 ± 0.8 %ID/g | tissue uptake at 1 h ([1]; Muscle): 0.5 ± 0.2 %ID/g | tissue uptake at 2 min ([1]; Spleen): 2.2 ± 0.1 %ID/g | tissue uptake at 1 h ([1]; Spleen): 0.3 ± 0.1 %ID/g | tissue uptake at 2 min ([1]; Stomach): 2.6 %ID/g | tissue uptake at 1 h ([1]; Stomach): 0.3 ± 0.4 %ID/g

CC(C)C[C@H](NC(=O)[C@H](Cc1c[nH]c2ccccc12)NC(=O)[C@H](Cc1ccccc1)NC(=O)[C@H](CCC(N)=O)NC(=O)[C@H](C)NC(=O)[C@H](CO)NC(=O)[C@H](CC(=O)O)NC(=O)[C@@H]1CCCN1C(=O)[C@H](CCCNC(=N)N)NC(=O)[C@H](CC(N)=O)NC(=O)CCC(C(=O)O)N1CCN(CC(=O)O)CCN(CC(=O)O)CC1)C(=O)N[C@@H](Cc1c[nH]cn1)C(=O)N[C@@H](Cc1c[nH]cn1)C(N)=O (some centres unmarked) [67Ga-BBBpS_9, metal not drawn] ({NODAGA}-NRPDSAQFWLHH-NH2)
tissue uptake at 2 min ([1]; Blood): 11.6 ± 1.5 %ID/g | tissue uptake at 1 h ([1]; Blood): 0.8 ± 0.4 %ID/g | tissue uptake at 2 min ([1]; Bone): 3.4 ± 0.3 %ID/g | tissue uptake at 1 h ([1]; Bone): 0.5 ± 0.1 %ID/g | tissue uptake at 2 min ([1]; Brain (brain uptake)): 0.61 ± 0.11 %ID/g | tissue uptake at 1 h ([1]; Brain (brain uptake)): 0.05 ± 0.01 %ID/g | tissue uptake at 2 min ([1]; Heart): 3.3 ± 0.1 %ID/g | tissue uptake at 1 h ([1]; Heart): 0.3 %ID/g | tissue uptake at 2 min ([1]; Intestine): 1.9 ± 0.2 %ID/g | tissue uptake at 1 h ([1]; Intestine): 0.2 %ID/g | tissue uptake at 2 min ([1]; Kidney): 30 ± 3.7 %ID/g | tissue uptake at 1 h ([1]; Kidney): 3.1 ± 0.3 %ID/g | tissue uptake at 2 min ([1]; Liver): 4.7 ± 0.4 %ID/g | tissue uptake at 1 h ([1]; Liver): 2.6 ± 0.3 %ID/g | tissue uptake at 2 min ([1]; Lung): 5.4 ± 0.6 %ID/g | tissue uptake at 1 h ([1]; Lung): 0.7 ± 0.1 %ID/g | tissue uptake at 2 min ([1]; Muscle): 2.6 ± 0.3 %ID/g | tissue uptake at 1 h ([1]; Muscle): 0.2 ± 0.1 %ID/g | tissue uptake at 2 min ([1]; Spleen): 2.6 ± 0.3 %ID/g | tissue uptake at 1 h ([1]; Spleen): 0.9 ± 0.2 %ID/g | tissue uptake at 2 min ([1]; Stomach): 1.5 ± 0.2 %ID/g | tissue uptake at 1 h ([1]; Stomach): 0.3 ± 0.1 %ID/g

CF-APWHLSSQYSRT-amide ({CF}-APWHLSSQYSRT-NH2) [CF-CTP, 5(6)-carboxyfluorescein-labelled CTP]
HPLC tR [2]: 8.45 min

CF-EEGRLYMRYYSPTTRRYG-amide [CF-CPP(II), 5(6)-carboxyfluorescein-labelled CPP(II)]
HPLC tR [2]: 7.95 min

CF-HIQLSPFSQSWR-amide [CF-HAP-2, 5(6)-carboxyfluorescein-labelled HAP-2]
HPLC tR [2]: 9.50 min

CF-KKKKQPPKPKKPKTQEKKKKQPPKPKR-amide [CF-P1746c27, 5(6)-carboxyfluorescein-labelled P1746c27]
HPLC tR [2]: 4.23 min

CF-KWCFRVCYRGICYRRCR-amide [CF-TI, 5(6)-carboxyfluorescein-labelled TI]
HPLC tR [2]: 8.11 min

CF-KYKGAIIGNIK-amide [CF-A, 5(6)-carboxyfluorescein-labelled A]
HPLC tR [2]: 7.05 min

CF-KYRSGAITIGY-amide [CF-B, 5(6)-carboxyfluorescein-labelled B]
HPLC tR [2]: 7.62 min

CF-LKTLTETLKELTKTLTEL-amide [CF-KLA13, 5(6)-carboxyfluorescein-labelled KLA13]
HPLC tR [2]: 13.51 min

CF-NRPDSAQFWLHH-amide [CF-Peptide third, 5(6)-carboxyfluorescein-labelled Peptide third]
HPLC tR [2]: 8.01 min

CF-RPKPQQFFGLM-amide [CF-SPA, 5(6)-carboxyfluorescein-labelled SPA]
HPLC tR [2]: 9.25 min

CF-YDEEGGGE-amide [CF-YDEGE, 5(6)-carboxyfluorescein-labelled YDEGE]
HPLC tR [2]: 7.89 min

CF-YKEATSTFTNITYRGT-amide [CF-Peptide b3-1, 5(6)-carboxyfluorescein-labelled Peptide b3-1]
HPLC tR [2]: 8.63 min

CF-YTQDFNKFHTFPQTAIGVGAP-amide [CF-hCR(12–32), 5(6)-carboxyfluorescein-labelled hCR(12–32)]
HPLC tR [2]: 8.79 min
